Data set [1] deals with spontaneously hypertensive rat (SHR). As to the kind of experiment: Effect of lowering blood pressure in spontaneously hypertensive rats (administration through stomach fistula). Type of data set: in vivo. The conditions noted are these: female SHR, 30 mg/kg through stomach fistula, recorded in 6 hours after administration; for Systolic blood pressure post-administration: first figure of pair; for Diastolic blood pressure post-administration: second figure of pair. As to the method:
A female spontaneously hypertensive rat (SHR) is anaesthetize by abdominal cavity injection with diazepam of 5 mg/kg and ketamine hydrochloride of 50 mg/kg and its back is fixed. An artery conduit is inserted from the left of a femoral artery to a lower abdominal aorta, and then a stomach fistula treatment is operated. After 20-30 hours for postoperative recovery, the artery conduit is connected to a pressure transducer by a perfusion three-way tube. Blood pressure signals per pulse are transformed into biologic signals by the pressure transducer, and systolic blood pressures and diastolic blood pressures per pulse are real-time recorded by a computer. After the SHR is connected to the computer system for 4-5 hours, blood pressures and palpitation intervals in one hour are recorded as normal comparing data before administration. Afterwards, the medicine with a dosage of 30 mg/kg and a volume of 2 ml/kg is administrated through the stomach fistula. Blood pressures in 6 hours after administration are continuously recorded to observe change of systolic blood pressure and diastolic blood pressure.
A female spontaneously hypertensive rat (SHR) is anaesthetize by abdominal cavity injection with diazepam of 5 mg/kg and ketamine hydrochloride of 50 mg/kg and its back is fixed. An artery conduit is inserted from the left of a femoral artery to a lower abdominal aorta, and than a stomach fistula treatment is operated. After 20-30 hours for postoperative recovery, the artery conduit is connected to it pressure transducer by a perfusion three-way tube. Blood pressure signals per pulse are transformed into biologic signals by pressure transducer, and systolic blood pressures and diastolic blood pressures per pulse are real-time recorded by a computer. When the SHR is connected to the computer system for 4-5 hours, blood pressures and palpitation intervals in one hour are recorded as normal comparing data before administration. Afterwards, it is adminstrated with a dosage of 30 mg/kg and a volume of 2 ml/kg through the stomach fistula. Blood pressures in 6 hours after administration are continuously recorded to observe changes of systolic blood pressure and diastolic blood pressure.

The next data set in a line: in vivo. As to conditions: both, Kunming, mouse, po.
Another data set relates to Kunming mice. As to the kind of experiment: Evaluation of toxicity (acute LD50, intragastric). The conditions noted are these: one intragastric administration, 14 days observation, 0.5% CMC-Na.
The nature of data set [2]: Efficiency of active metabolism conversion (EXP3174 in blood plasma by HPLC after oral dosing). As to conditions: SD rats, 20 mg/kg oral intragastric infusion, blood at 3 hours. Type of data set: in vivo. As to the method:
The SD rats are orally administrated by intragastric infusion with a dosage of 20 mg/kg. Blood samples are collected from an orbit at the time of 3 hours since the administration. The blood samples freely drop into centrifuge tubes. The sampling amount of blood is 0.3˜0.5 ml, and the blood plasma is centrifugalized. After the sample is pre-treated, the blood is analyzed by using HPLC method to get the amount of EXP3174 in the blood plasma. Based on the molar ratio of the amount of EXP3174 and the amount of administration dosage, a ratio of the experiment compounds being converted into active metabolite in vivo may be calculated.

For data set [3] the following is noted: relative to EXP3174; cited from earlier work.
For data set [4] the following is noted: cited from earlier work.

The source of these data is USRE44873E1, “Imidazole-5-carboxylic acid derivatives, the preparation method therefor and the uses thereof” (Salubris Asset Management Co., Ltd., priority 2006, dated 2014).

Description for Kunming mice: (§1) 20 Kunming mice with weight of 18-22 g are randomly divided into two groups, each group including 10 ones with two identical halves for male and female. The mice are fasted for 6 hours, and then the two groups of mice are administrated by intragastric infusion with the compounds of the present invention in the amount of 10 g/kg, 5 g/kg, 2 g/kg. The administration volume is 0.8 ml/20 g, and the solvent is 0.5% CMC-Na. Observe and accumulate the number of dead animals during 14 days after administration (one administration) to calculate LD50.
Description for in vivo: as §1

In turn, `CCCCc1nc(Cl)c(C(=O)OC2OC(=O)c3ccccc32)n1Cc1ccc(-c2ccccc2-c2nnn[nH]2)cc1` (racemic) [Compound 2, (+/−)2-butyl-4-chloro-1-[2′-(1H-tetrazol-5-yl)1,1′-biphenyl-methyl]imidazole-5-carboxylic acid, 2-[C]-benzofuranonyl ester] showed a melting point of 120.6 to 124.6 °C. Moreover, in data set [1], the “Systolic blood pressure post-administration” value came to 155 mmHg and the “Diastolic blood pressure post-administration” value came out at 105 mmHg.
In the case of `CCCCc1nc(Cl)c(C(=O)OC(C)OC(=O)OC2CCCCC2)n1Cc1ccc(-c2ccccc2-c2nnn[nH]2)cc1` (racemic) [Compound 7, (+/−)2-butyl-4-chloro-1-[2′-(1H-tetrazol-5-yl)1,1′-biphenyl-methyl]imidazole-5-carboxylic acid, 1-[(cyclohexyloxycarbonyl)oxy]ethyl ester], in data set [1], the “Systolic blood pressure post-administration” value came out at 157 mmHg and the “Diastolic blood pressure post-administration” value was 103 mmHg.
Turning to `CCCCc1nc(Cl)c(C(=O)OCC)n1Cc1ccc(-c2ccccc2-c2nnn[nH]2)cc1` [Compound 1, 2-butyl-4-chloro-1-[2′-(1H-tetrazol-5-yl)1,1′-biphenyl-methyl]imidazole-5-carboxylic acid, ethyl ester], in data set [1], the “Systolic blood pressure post-administration” value stood at 159 mmHg and the “Diastolic blood pressure post-administration” value is reported as 103 mmHg.
As to `CCCCc1nc(Cl)c(C(=O)OCc2oc(=O)oc2C)n1Cc1ccc(-c2ccccc2-c2nnn[nH]2)cc1` [Compound 3, 2-butyl-4-chloro-1-[2′-(1H-tetrazol-5-yl)1,1′-biphenyl-methyl]imidazole-5-carboxylic acid, cyclic 2,3-carbonate], in data set [1], the “Systolic blood pressure post-administration” value turned out to be 158 mmHg and the “Diastolic blood pressure post-administration” value came to 102 mmHg.
The like results for `CCCCc1nc(Cl)c(C(=O)OCOC(=O)C(C)(C)C)n1Cc1ccc(-c2ccccc2-c2nnn[nH]2)cc1` [Compound 4, 2-butyl-4-chloro-1-[2′-(1H-tetrazol-5-yl)1,1′-biphenyl-methyl]imidazole-5-carboxylic acid, pivaloyloxymethyl ester] were, in that order, 159 mmHg and 102 mmHg.
The like results for `CCCCc1nc(Cl)c(C(=O)OC(C)OC(=O)OC(C)C)n1Cc1ccc(-c2ccccc2-c2nnn[nH]2)cc1` (stereo not drawn) [Compound 5, 2-butyl-4-chloro-1-[2′-(1H-tetrazol-5-yl)1,1′-biphenyl-methyl]imidazole-5-carboxylic acid, 1-[(isopropoxycarbonyl)oxy]ethyl ester] were, in that order, 157 mmHg and 101 mmHg.
The molecule `CCCCc1nc(Cl)c(C(=O)OC(C)OC(=O)OC(C)(C)C)n1Cc1ccc(-c2ccccc2-c2nnn[nH]2)cc1` (stereo not drawn) [Compound 6, 2-butyl-4-chloro-1-[2′-(1H-tetrazol-5-yl)1,1′-biphenyl-methyl]imidazole-5-carboxylic acid, 1-[(tert-butoxycarbonyl)oxy]ethyl ester] returned a melting point of 60.5 to 62 °C. Further, in data set [1], the “Systolic blood pressure post-administration” value worked out at 159 mmHg and the “Diastolic blood pressure post-administration” value is on record as 103 mmHg.
For `CCCCc1nc(Cl)c(C(=O)OCOC(=O)OC(C)C)n1Cc1ccc(-c2ccccc2-c2nnn[nH]2)cc1` [Compound 8, 2-butyl-4-chloro-1-[2′-(1H-tetrazol-5-yl)1,1′-biphenyl-methyl]imidazole-5-carboxylic acid, 1-[(isopropoxycarbonyl)oxy]methyl ester], in data set [1], the “Systolic blood pressure post-administration” value stood at 156 mmHg and the “Diastolic blood pressure post-administration” value came to 101 mmHg. This molecule displayed an LD50 at 14 days in the data set “in vivo” of over 10000 mg/kg.
In the same order, the values of `CCCCc1nc(Cl)c(C(=O)OCOC(=O)OCC)n1Cc1ccc(-c2ccccc2-c2nnn[nH]2)cc1` [Compound 9, 2-butyl-4-chloro-1-[2′-(1H-tetrazol-5-yl)1,1′-biphenyl-methyl]imidazole-5-carboxylic acid, 1-[(ethoxycarbonyl)oxy]methyl ester] are 159 mmHg, 104 mmHg and over 10000 mg/kg.
Take `CCCCc1nc(Cl)c(C(=O)OCOC(=O)OC(C)(C)C)n1Cc1ccc(-c2ccccc2-c2nnn[nH]2)cc1` [Compound 10, 2-butyl-4-chloro-1-[2′-(1H-tetrazol-5-yl)1,1′-biphenyl-methyl]imidazole-5-carboxylic acid, 1-[(tert-butoxycarbonyl)oxy]methyl ester]: in data set [1], the “Systolic blood pressure post-administration” value turned out to be 158 mmHg and the “Diastolic blood pressure post-administration” value was 103 mmHg. In the data set “in vivo”, this molecule came in with an LD50 at 14 days of over 10000 mg/kg.
As to `CCCCc1nc(Cl)c(C(=O)OC(C)OC(=O)OCC)n1Cc1ccc(-c2ccccc2-c2nn[nH]n2)cc1` (stereo not drawn) [HN-65021], the LD50 with Kunming mice was in the range of 5000 to 8000 mg/kg. In data set [2], the “metabolism conversion ratio (molar ratio of EXP3174 in blood plasma to administered dosage)” value was found to be 1.5%.
Take `CCCCc1nc(Cl)c(CO)n1Cc1ccc(-c2ccccc2-c2nn[nH]n2)cc1` [losartan potassium]: the “Activity in reducing blood pressure as share of that of EXP3174” value in data set [3] was 3%. The same molecule came in with an LD50 at 14 days in the data set “in vivo” of 2000 mg/kg. Also, the “Share of losartan potassium metabolized in vivo to its active substance EXP3174” value in data set [4] is reported as 14%.

As usually defined, the melting point is the temperature of the solid-liquid transition. As a reminder, the LD50 is the dose expected to kill half of the subjects tested.
